# Results as given in BindingDB's records for doi:10.1016/j.ejmech.2016.06.026 (Czech Academy of Sciences, 2016).
# Assays:
# [1] = Inhibition of reverse transcriptase Y181C mutant in HIV-1 3B infected in human MT4 cells assessed as inhibition of viral replication after 5 days by cell titer glo based luciferase reporter gene assay
# [2] = Inhibition of HIV-1 3B reverse transcriptase K103N mutant infected in human MT4 cells assessed as inhibition of viral replication after 5 days by cell titer glo based luciferase reporter gene assay
smiles,measurement,setting,value
COc1cc(F)c(C(=O)c2ccnc(Nc3ccc(C#N)cc3)n2)c(F)c1,EC50,[1],> 500 nM
same,EC50,[2],347 nM
